Measured values: ChEMBL document CHEMBL3045868, “Synthesis and antibacterial activities of para-alkoxy phenyl--ketoaldehyde derivatives” (Med Chem Res, 2013)
≈ marks a conversion by molar mass, not a printed value.

Key:
[1] = tested on: Staphylococcus aureus; assay: Antibacterial activity against Staphylococcus aureus clinical isolate 6 assessed as growth inhibition at pH 7 after 16 to 18 hr by NCCLS agar dilution method; format: functional
[2] = tested on: Helicobacter pylori; assay: Antibacterial activity against Helicobacter pylori 05-2 assessed as growth inhibition after 16 to 18 hr NCCLS agar dilution method; format: functional
[3] = tested on: Staphylococcus aureus; assay: Antibacterial activity against Staphylococcus aureus clinical isolate 7 assessed as growth inhibition after 16 to 18 hr by NCCLS agar dilution method; format: functional
[4] = tested on: Staphylococcus aureus; assay: Antibacterial activity against Staphylococcus aureus clinical isolate 2 assessed as growth inhibition at pH 5 after 16 to 18 hr by NCCLS agar dilution method; format: functional
[5] = tested on: Staphylococcus aureus; assay: Antibacterial activity against Staphylococcus aureus clinical isolate 12 assessed as growth inhibition at pH 5 after 16 to 18 hr by NCCLS agar dilution method; format: functional
[6] = tested on: Staphylococcus aureus; assay: Antibacterial activity against Staphylococcus aureus clinical isolate 13 assessed as growth inhibition at pH 9 after 16 to 18 hr by NCCLS agar dilution method; format: functional
[7] = tested on: Staphylococcus aureus; assay: Bactericidal activity against Staphylococcus aureus clinical isolate 5 after 24 hr; format: functional; conditions: isolate 5, 24 h
[8] = tested on: Staphylococcus aureus; assay: Antibacterial activity against Staphylococcus aureus clinical isolate 9 assessed as growth inhibition at pH 9 after 16 to 18 hr by NCCLS agar dilution method; format: functional
[9] = tested on: Staphylococcus aureus; assay: Antibacterial activity against Staphylococcus aureus clinical isolate assessed as growth inhibition at pH 7 after 16 to 18 hr by NCCLS agar dilution method; format: functional
[10] = tested on: Staphylococcus aureus; assay: Antibacterial activity against Staphylococcus aureus clinical isolate 11 assessed as growth inhibition at pH 9 after 16 to 18 hr by NCCLS agar dilution method; format: functional
[11] = tested on: Staphylococcus aureus; assay: Bactericidal activity against Staphylococcus aureus clinical isolate 9 after 24 hr; format: functional; conditions: isolate 9, 24 h
[12] = tested on: Pseudomonas aeruginosa; assay: Antibacterial activity against Pseudomonas aeruginosa ATCC 27853 assessed as growth inhibition after 16 to 18 hr NCCLS agar dilution method; format: functional
[13] = tested on: Staphylococcus aureus; assay: Bactericidal activity against methicillin-resistant Staphylococcus aureus isolate 4 after 24 hr; format: functional; conditions: isolate 4, 24 h
[14] = tested on: Staphylococcus aureus; assay: Antibacterial activity against Staphylococcus aureus clinical isolate 9 assessed as growth inhibition after 16 to 18 hr by NCCLS agar dilution method; format: functional
[15] = tested on: Helicobacter pylori; assay: Antibacterial activity against Helicobacter pylori 06-6 assessed as growth inhibition after 16 to 18 hr NCCLS agar dilution method; format: functional
[16] = tested on: Staphylococcus aureus; assay: Antibacterial activity against Staphylococcus aureus clinical isolate 24 assessed as growth inhibition at pH 5 after 16 to 18 hr by NCCLS agar dilution method; format: functional
[17] = tested on: Helicobacter pylori; assay: Antibacterial activity against Helicobacter pylori 05-9 assessed as growth inhibition after 16 to 18 hr NCCLS agar dilution method; format: functional
[18] = tested on: Staphylococcus aureus; assay: Antibacterial activity against Staphylococcus aureus clinical isolate 18 assessed as growth inhibition at pH 9 after 16 to 18 hr by NCCLS agar dilution method; format: functional
[19] = tested on: Staphylococcus aureus; assay: Bactericidal activity against Staphylococcus aureus clinical isolate after 24 hr; format: functional
[20] = tested on: Staphylococcus aureus; assay: Antibacterial activity against Staphylococcus aureus clinical isolate 21 assessed as growth inhibition at pH 9 after 16 to 18 hr by NCCLS agar dilution method; format: functional
[21] = tested on: Helicobacter pylori; assay: Antibacterial activity against Helicobacter pylori 06-2 assessed as growth inhibition after 16 to 18 hr NCCLS agar dilution method; format: functional
[22] = tested on: Staphylococcus aureus; assay: Antibacterial activity against Staphylococcus aureus clinical isolate 19 assessed as growth inhibition at pH 7 after 16 to 18 hr by NCCLS agar dilution method; format: functional
[23] = tested on: Staphylococcus aureus; assay: Antibacterial activity against Staphylococcus aureus clinical isolate 24 assessed as growth inhibition at pH 9 after 16 to 18 hr by NCCLS agar dilution method; format: functional
[24] = tested on: Staphylococcus aureus; assay: Antibacterial activity against Staphylococcus aureus clinical isolate 1 assessed as growth inhibition at pH 7 after 16 to 18 hr by NCCLS agar dilution method; format: functional
[25] = tested on: Staphylococcus aureus; assay: Antibacterial activity against Staphylococcus aureus clinical isolate 16 assessed as growth inhibition at pH 5 after 16 to 18 hr by NCCLS agar dilution method; format: functional
[26] = tested on: Staphylococcus aureus; assay: Antibacterial activity against Staphylococcus aureus clinical isolate 10 assessed as growth inhibition after 16 to 18 hr by NCCLS agar dilution method; format: functional
[27] = tested on: Staphylococcus aureus; assay: Antibacterial activity against Staphylococcus aureus clinical isolate 18 assessed as growth inhibition at pH 5 after 16 to 18 hr by NCCLS agar dilution method; format: functional
[28] = tested on: Staphylococcus aureus; assay: Bactericidal activity against Staphylococcus aureus clinical isolate 10 after 24 hr; format: functional; conditions: isolate 10, 24 h
[29] = tested on: Staphylococcus aureus; assay: Bactericidal activity against Staphylococcus aureus clinical isolate 3 after 24 hr; format: functional; conditions: isolate 3, 24 h
[30] = tested on: Staphylococcus aureus; assay: Antibacterial activity against Staphylococcus aureus clinical isolate 2 assessed as growth inhibition at pH 7 after 16 to 18 hr by NCCLS agar dilution method; format: functional
[31] = tested on: Staphylococcus aureus; assay: Antibacterial activity against Staphylococcus aureus clinical isolate 5 assessed as growth inhibition at pH 9 after 16 to 18 hr by NCCLS agar dilution method; format: functional
[32] = tested on: Staphylococcus aureus; assay: Antibacterial activity against Staphylococcus aureus clinical isolate 6 assessed as growth inhibition after 16 to 18 hr by NCCLS agar dilution method; format: functional
[33] = tested on: Staphylococcus aureus; assay: Bactericidal activity against Staphylococcus aureus clinical isolate 7 after 24 hr; format: functional; conditions: isolate 7, 24 h
[34] = tested on: Helicobacter pylori; assay: Antibacterial activity against Helicobacter pylori 06-7 assessed as growth inhibition after 16 to 18 hr NCCLS agar dilution method; format: functional
[35] = tested on: Staphylococcus aureus; assay: Antibacterial activity against Staphylococcus aureus clinical isolate 11 assessed as growth inhibition at pH 7 after 16 to 18 hr by NCCLS agar dilution method; format: functional
[36] = tested on: Staphylococcus aureus; assay: Antibacterial activity against Staphylococcus aureus clinical isolate 1 assessed as growth inhibition at pH 5 after 16 to 18 hr by NCCLS agar dilution method; format: functional
[37] = tested on: Staphylococcus aureus; assay: Antibacterial activity against Staphylococcus aureus clinical isolate 13 assessed as growth inhibition at pH 7 after 16 to 18 hr by NCCLS agar dilution method; format: functional
[38] = tested on: Staphylococcus aureus; assay: Antibacterial activity against Staphylococcus aureus clinical isolate 22 assessed as growth inhibition at pH 5 after 16 to 18 hr by NCCLS agar dilution method; format: functional
[39] = tested on: Helicobacter pylori; assay: Antibacterial activity against Helicobacter pylori 05-4 assessed as growth inhibition after 16 to 18 hr NCCLS agar dilution method; format: functional, 05-Apr
[40] = tested on: Staphylococcus aureus; assay: Bactericidal activity against methicillin-resistant Staphylococcus aureus isolate 5 after 24 hr; format: functional; conditions: isolate 5, 24 h
[41] = tested on: Staphylococcus aureus; assay: Antibacterial activity against Staphylococcus aureus clinical isolate 7 assessed as growth inhibition at pH 9 after 16 to 18 hr by NCCLS agar dilution method; format: functional
[42] = tested on: Staphylococcus aureus; assay: Bactericidal activity against methicillin-resistant Staphylococcus aureus isolate 1 after 24 hr; format: functional; conditions: isolate 1, 24 h
[43] = tested on: Staphylococcus aureus; assay: Antibacterial activity against Staphylococcus aureus clinical isolate 8 assessed as growth inhibition at pH 7 after 16 to 18 hr by NCCLS agar dilution method; format: functional
[44] = tested on: Staphylococcus aureus; assay: Antibacterial activity against Staphylococcus aureus clinical isolate 15 assessed as growth inhibition at pH 7 after 16 to 18 hr by NCCLS agar dilution method; format: functional

## CO/N=C/CC(=O)c1ccc(OC)cc1
[1]
  MIC: 32 µg/mL (≈ 154 µM)
[2]
  MIC: 16 µg/mL (≈ 77.2 µM)
[3]
  MIC: 8 µg/mL (≈ 38.6 µM)
[4]
  MIC: 32 µg/mL (≈ 154 µM)
[5]
  MIC: 16 µg/mL (≈ 77.2 µM)
[6]
  MIC: 8 µg/mL (≈ 38.6 µM)
[7]
  MBC: 64 µg/mL (≈ 309 µM)
[8]
  MIC: 8 µg/mL (≈ 38.6 µM)
[9]
  MIC50: 16 µg/mL (≈ 77.2 µM)
  MIC90: 32 µg/mL (≈ 154 µM)
[10]
  MIC: 8 µg/mL (≈ 38.6 µM)
[11]
  MBC: 128 µg/mL (≈ 618 µM)
[12]
  MIC: > 64 µg/mL
[13]
  MBC: 256 µg/mL (≈ 1240 µM)
[14]
  MIC: 16 µg/mL (≈ 77.2 µM)
[15]
  MIC: 16 µg/mL (≈ 77.2 µM)
[16]
  MIC: 64 µg/mL (≈ 309 µM)
[17]
  MIC: 64 µg/mL (≈ 309 µM)
[18]
  MIC: 16 µg/mL (≈ 77.2 µM)
[19]; read-out: MIC50
  MBC50 (60.1); MBC90 (60.2): 64 µg/mL (≈ 309 µM)
[19]; read-out: MIC90
  MBC50 (60.1); MBC90 (60.2): 128 µg/mL (≈ 618 µM)
[20]
  MIC: 8 µg/mL (≈ 38.6 µM)
[21]
  MIC: 32 µg/mL (≈ 154 µM)
[22]
  MIC: 16 µg/mL (≈ 77.2 µM)
[23]
  MIC: 8 µg/mL (≈ 38.6 µM)
[24]
  MIC: 32 µg/mL (≈ 154 µM)
[25]
  MIC: 32 µg/mL (≈ 154 µM)
[26]
  MIC: 16 µg/mL (≈ 77.2 µM)
[27]
  MIC: 32 µg/mL (≈ 154 µM)
[28]
  MBC: > 128 µg/mL
[29]
  MBC: 64 µg/mL (≈ 309 µM)
[30]
  MIC: 16 µg/mL (≈ 77.2 µM)
[31]
  MIC: 8 µg/mL (≈ 38.6 µM)
[32]
  MIC: 8 µg/mL (≈ 38.6 µM)
[33]
  MBC: 128 µg/mL (≈ 618 µM)
[34]
  MIC: 32 µg/mL (≈ 154 µM)
[35]
  MIC: 16 µg/mL (≈ 77.2 µM)
[36]
  MIC: 64 µg/mL (≈ 309 µM)
[37]
  MIC: 8 µg/mL (≈ 38.6 µM)
[38]
  MIC: 16 µg/mL (≈ 77.2 µM)
[39]
  MIC: 16 µg/mL (≈ 77.2 µM)
[40]
  MBC: 256 µg/mL (≈ 1240 µM)
[41]
  MIC: 8 µg/mL (≈ 38.6 µM)
[42]
  MBC: 128 µg/mL (≈ 618 µM)
[43]
  MIC: 16 µg/mL (≈ 77.2 µM)
[44]
  MIC: 8 µg/mL (≈ 38.6 µM)
